Columns and labels:
zebrafish larvae = test: Zebrafish larval toxicity (NOEC, lethal dose); type: in vivo; conditions: 7 dpf zebrafish larvae; for Lethal dose: up to 5 h treatment; for Highest concentration tested for anti-seizure activity: highest sub-lethal dose
Procedure: Using a 96-well plate, one zebrafish larva (7 dpf) was placed in each well in 100 μL of tank water (TW). 100 μL of each compound (0.5-15 μM) was then added to each well for 12 animals (one row) to give a final volume of 200 […]. A control row was tested for DMSO toxicity effects. […] Each drug was assessed for the no observed effect concentration (NOEC), the highest non-lethal dose resulting in no apparent toxic effects.
Zebrafish (AB strain) were obtained from the Zebrafish International Resource Center (supported by P40 RR012546 from NIH-NCRR). Zebrafish were maintained and crossed according to standard methods (Westerfield, 2000). Fertilized eggs were collected and placed in E3 embryo medium and positioned in an incubator set at 28.5° C. with a 14/10 h light/dark cycle (Kimmel et al., 1995). To determine the lethal dose of each compound, 96-well plates containing one zebrafish (7 days post-fertilization, dpf) per well in 100 μL of tank water were used. 100 μL of each compound (0.5 to 15 μM) was added to each well for 12 animals (one row) for a final volume of 200 μL. One row of larvae was used as DMSO only controls. […] All zebrafish studies were approved by the Medical University of South Carolina Institutional Animal Care and Use Committee (AR #2850) and performed in accordance with the guidelines.
Using a 96-well plate, one zebrafish larva (7 dpf) was placed in each well in 100 μL of tank water. 100 μL of each compound was then added to each well for 12 animals (one row) for a final volume of 200 μL. One row of zebrafish larvae was used as DMSO only controls. […] Toxicity was also measured in the mouse model by the NIH Anticonvulsant Screening Program at the National Institute of Neurological Disorders and Stroke (Stables and Kupferberg, 1997), according to the established NIH experimental procedures. Compounds were delivered into mice by intraperitoneal (i.p.) injection at a dose of 100 mg/kg in sterile 5% DMSO, 95% Neobee (Josey et al., 2013). Acute toxicity was assessed by monitoring the animals for impaired neuromuscular function by placing treated mice on a rod rotating at 6 rpm. […]

PTZ-induced seizures = test: PTZ-induced seizure (swim activity) model in zebrafish larvae; type: in vivo, zebrafish (Danio rerio); conditions: for Seizure suppression: pretreated 1 hr at NOEC
Procedure: The DanioVision locomotion tracking instrument with Ethovision XT software (Noldus) was used to measure the severity of the seizures by quantifying the locomotor activity of each fish.
In a 48-well plate, one 6-7 dpf larva was added per well. Compounds were given at a sub-lethal dose and treated for 1 h. Three control rows were included—tank water (TW) only, PTZ only and PTZ+VPA (2-4 mM final concentration of VPA). […] After 5 min, the plate was transferred to the Daniovision apparatus and the chamber light was turned on. After 2 min, Ethovision was used to determine the distance traveled (a marker of seizure of activity) by each fish for 15 min (25 frames per second). Velocity, duration of movement, and frequency of movement were also determined from the same recording. After measurement, fish were monitored visually for survival. The distance moved over the recording period with Ethovision XT software (Noldus) was averaged over 8 wells per treatment unless the fish was not detected.
In a 48-well plate, one 7 dpf zebrafish was added per well. Larvae were dosed with each compound at a sub-lethal dose 1 h prior to PTZ treatment. Three control rows were included with each experiment—tank water only control, PTZ only and PTZ+VPA (4 mM final concentration of VPA). […] After 5 min, the plate was transferred to the Daniovision instrument (Noldus Information Technology) and the chamber light was turned on. After 2 min, MediaRecorder (Noldus) was used to record video for 15 min. A small number of videos were acquired 25 frames per second, but the majority of the data was acquired at the frame rate of 60 frames per second. After recording, fish were monitored visually for survival. Ethovision XT software (Noldus) was used to track the fish movement from the video images in order to calculate the total distance traveled over 15 min. […] All experimental comparisons were made between animals from the same clutch.

HT22 cells = test: Glutathione determination in glutamate-treated cells; type: cell-based, mouse; conditions: HT22, 10 mM glutamate 8 hrs
Procedure: The content of total glutathione (reduced and oxidized) in the supernatant of cell homogenate was measured using the glutathione assay kit (Cayman Chemical) in microtiter plate assay, which utilizes an enzymatic recycling method, using glutathione reductase, for the quantification of glutathione. The sulfhydryl group of glutathione reacted with 5,5′-dithiobis-2-nitrobenzoic acid (DTNB) and produced a yellow-colored 5-thio-2-nitrobenzoic acid (TNB), which was measured at 405 nm.

HT-22 neuronal cells = test: Respirometry (OCR, ECAR; Seahorse XF-96); type: cell-based, mouse; parameters: ECAR (glycolysis), difference from control: unit not given here; conditions: HT-22 cells, mean±SEM
Procedure: Oxygen consumption rates (OCR) and extracellular acidification rates (ECAR) of HT-22 neuronal cells were performed on the XF-96 Extracellular Flux Analyzer (Seahorse Bioscience) using standard methods (Beeson et al., 2010). In brief, cells were cultured in 96 well Seahorse plates in DMEM high glucose media (Invitrogen) supplemented with 10% FBS, 10 mM HEPES, and 1% antibiotic-antimycotic (Invitrogen). The media was replaced with DMEM media supplemented with 25 mM glucose, 10 mM sodium pyruvate, 31 mM NaCl, and 2 mM glutamine at pH 7.4. Each of the four drug ports on the Seahorse sensor cartridge were filled with test compound (media only, 5 μM NQN-1, 10 μM VK3 or 12.5 μM MB), 10 μM oligomycin, 1 μM FCCP, and 5 μM rotenone, which were injected into each well at 20, 80, 110, and 135 min, respectively. The pmol/min OCR rate for each well (9-52 wells/group) was measured. Wells were excluded from the analysis if their OCR values surpassed the Tukey Outlier Rule. In order to standardize the OCR rates across wells, the average OCR value at 17 min (last time point prior to injection of the test compounds) for each experimental group was calculated, and set to 100. All OCR values are given as a percentage of this pre-treatment value. […]

c-fos = c-fos gene expression in PTZ-treated zebrafish larvae; type: in vivo, zebrafish (Danio rerio); conditions: 7 dpf zebrafish, pre-treatment
Procedure: Ten 7 dpf larvae were placed in 500 μL tank water in wells of a 48-well cell-culture plate and appropriate concentrations of drugs were added as in the behavior study (Table 9). After a 1 h pre-incubation period, PTZ was added to a final concentration of 15 mM in appropriate wells and larvae were incubated for a further 45 min. Fish were quickly euthanized by incubating the plate in an ice-water bath for 15 min. Fish were removed from each well and all liquid removed before freezing at −80° C. RNA was extracted using Trizol (Invitrogen) followed by the RNeasy Mini kit (Qiagen). Frozen embryos were homogenized in 800 μL Trizol using in-tube pestles and a motorized homogenizer. Following a 5-min incubation at room temperature, 200 μL chloroform was added and the samples were centrifuged at 12,000 g for 10 min. The aqueous phase was transferred to a new tube and 250 μL 100% ethanol was added and the samples mixed. This mixture was then transferred to the Qiagen minicolumn assembly and the protocol followed as described with the kit. Samples were eluted in 30 μL RNase free water and concentration was determined using the Nanodrop instrument (Thermo Fisher). cDNA was prepared using the RETROscript kit (Ambion) with 500 ng total RNA. cDNA was then diluted 1:1 with sterile dH2O and 2.5 μL of this cDNA was used in the QPCR reaction with SsoAdvanced SYBR Green Supermix (BioRad) and c-fos primers designed to span an intron-exon junction (c-fos F: […], SEQ ID NO:9; c-fos R: […], SEQ ID NO:10) ([…] each) in the BioRad CFX96 RealTime instrument. L13a and EF1a gene expression were used for normalization (Rahn et al., 2013). The following cycle conditions were used: 95° C./3 min, 40 cycles of 95° C./15 s, 62° C./30 s, followed by 95° C. 30 s and a dissociation curve. Samples were run in duplicate. The 2^−ΔΔCt method was used to quantify gene expression, whereby all gene Ct values were first normalized to Ct values of the geometric mean of the Ct of L13a and EF1a (Livak and Schmittgen, 2001). Treated samples were then normalized to the tank water control and converted to fold change.

[1] = Antioxidant activity assay (DPPH free radical scavenging); conditions: 20 μM, 100 μM DPPH in methanol
Procedure: Antioxidant activity of various reagents was assayed as previously described by monitoring the disappearance of the optical absorbance of the stable-free radical DPPH on reaction with test compounds (Blois, 1958). The rate of the reaction represents the antioxidant potency of test agents. The known free radical scavenger Trolox and ascorbic acid were used as positive controls. Briefly, 10 μL of test reagents at final concentrations of 20 μM were added to 200 μL of 100 μM DPPH in methanol. Optical absorbance of DPPH at 517 nm was immediately monitored for 10 min.

| Structure (SMILES) | Lethal dose (zebrafish larvae) | Highest concentration tested for anti-seizure activity (zebrafish larvae) | Seizure suppression (PTZ-induced seizures; PTZ-treated zebrafish larvae) | also measured |
| --- | --- | --- | --- | --- |
| O=C(NO)C(c1ccccc1)c1ccccc1 [Diphenyl acetic hydroxamic acid (dPAHA), diphenyl acetic hydroxamic acid] | 0.01 mM | 0.0075 mM | No |  |
| COC1=C(OC)C(=O)C(CCCCCCCCCCO)=C(C)C1=O [Ideb, Idebenone] |  |  |  | depletion of total cellular GSH (HT22 cells; 5 μM): did not prevent GSH depletion |
| CN(C)c1ccc2nc3ccc(=[N+](C)C)cc-3sc2c1.[Cl-] [MB, reference compound] |  |  |  | basal cellular respiration, difference in OCR from control (HT-22 neuronal cells; 1 h treatment, OCR as percentage of pre-treatment value): 53.21±5.92; basal mitochondrial respiration, difference from control (HT-22 neuronal cells; basal minus non-mitochondrial (rotenone)): 19.22±6.54; ATP-linked respiration, difference from control (HT-22 neuronal cells; basal minus oligomycin): 19.76±6.59; ECAR (glycolysis), difference from control (HT-22 neuronal cells): −0.86±1.26 |
| CN1C(=O)C(Cc2c[nH]c3ccccc23)NC1=S (stereo not drawn) [Nec-1, Necrostatin-1] |  |  |  | depletion of total cellular GSH (HT22 cells; 50 μM): did not prevent GSH depletion |
| O=C(CCCCCCC(=O)Nc1ccccc1)NO [Suberoylanilide hydroxamic acid (SAHA), suberoylanilide hydroxamic acid] | >0.015 mM | 0.015 mM | No |  |
| CN1CCc2c(c3ccccc3n2Cc2ccc(C(=O)NO)cc2)C1 [Tubastatin A (Tub A), Tubastatin A] | >0.012 mM | 0.012 mM | No |  |
| CCCC(CCC)C(=O)O [Valproic Acid (VPA), 2-n-propylpentanoic acid] |  | 4 mM | Yes | required concentration for reduction of seizures (PTZ-induced seizures; PTZ-treated zebrafish larvae): 4 mM; PTZ-induced swim activity (distance traveled) (PTZ-induced seizures; zebrafish larvae, 1 h pretreatment at sub-lethal concentration (VPA 4 mM, NQN-1 3 μM), 15 mM PTZ): significantly reduced distance traveled compared to PTZ alone; PTZ-induced increase in c-fos expression (c-fos): able to blunt this increase in expression |
| O=C1O[C@H]([C@@H](O)CO)C(O)=C1O [ascorbic acid] |  |  |  | free radical scavenging capacity (DPPH absorbance) [1]: rapidly scavenged DPPH |
